For five compounds, Activity results are on record in ChEMBL document CHEMBL1151300, “Studies on Aristolochia III. Isolation and biological evaluation of constituents of Aristolochia indica roots for fertility-regulating activity” (J Nat Prod, 1984).

The test system of series [1] is Rattus norvegicus. Briefly: Antifertility effect in Sprague-Dawley rat assessed as number of pregnant animals at 2 mg/kg administered postcoitally for 1 to 10 days. Type of series: functional, organism-based. Also noted: dose 2 mg/kg.
Series [2] relates to Rattus norvegicus. Briefly: Antifertility effect in Sprague-Dawley rat assessed as number of pregnant animals at 40 mg/kg, po administered postcoitally for 1 to 6 days. The format is functional, organism-based. Also on record: dose 40 mg/kg.
In series [3] the test system is Rattus norvegicus. The series can be described thus: Antifertility effect in Sprague-Dawley rat assessed as number of pregnant animals at 58 mg/kg, po administered postcoitally for 1 to 6 days. Also on record: dose 58 mg/kg. Type of series: functional, organism-based.
The test system of series [4] is Syrian golden hamster. The series can be described thus: Toxicity in golden syrian hamster at 25 mg/kg. The format is organism-based, Mesocricetus auratus. Also noted: dose 25 mg/kg. To be noted: in vivo.
The test system of series [5] is Rattus norvegicus. The series can be described thus: Antifertility effect in Sprague-Dawley rat assessed as number of pregnant animals at 40 mg/kg, po administered postcoitally for 1 to 10 days. Type of series: functional, organism-based. Also noted: dose 40 mg/kg.
In series [6] the test system is Rattus norvegicus. The series can be described thus: Toxicity in Sprague-Dawley rat at 40 mg/kg. To be noted: in vivo. Also on record: dose 40 mg/kg. Type of series: organism-based.
The subject of series [7] is Rattus norvegicus. Briefly: Antifertility effect in Sprague-Dawley rat assessed as number of pregnant animals at 10 mg/kg administered postcoitally for 1 to 10 days. Also on record: dose 10 mg/kg. The format is functional, organism-based.
Series [8] relates to Mus musculus. Briefly: Antifertility effect in CD1 mouse assessed as number of pregnant animals at 50 mg/kg, po administered postcoitally for 6 days. The format is functional, organism-based. Also on record: dose 50 mg/kg.
Series [9] concerns Mus musculus. Briefly: Antifertility effect in CD1 mouse assessed as number of pregnant animals at 100 mg/kg, po administered postcoitally for 6 days. Type of series: functional, organism-based. Also on record: dose 100 mg/kg.

Calls of active or inactive are those of the source. The calls are words filed in the database; no cut-off is given here.

`COc1cccc2c1ccc1c(C(=O)O)cc3c(c12)OCO3`: the result in series [1] and in [2] was inactive.

On to `O=C1OC[C@H](Cc2ccc3c(c2)OCO3)/C1=C\c1ccc2c(c1)OCO2`, for which, in series [3], the outcome was inactive.

`COc1cccc2c1cc([N+](=O)[O-])c1c(C(=O)O)cc3c(c12)OCO3` [ARISTOLOCHIC ACID]: the outcome in series [4] and in series [6] was Active. In addition, the outcome in series [5] was Active. Moreover, the outcome in series [7] was inactive.

In the case of `COC(=O)c1cc2c(c3c1ccc1c(OC)cccc13)OCO2`, the result in [8] was inactive.

Turning to `C[C@@H]1CCC[C@]23C[C@@H](CC[C@@]12C)[C@@](C)(O)C3`, the result in series [9] was inactive.
